Data from ChEMBL document CHEMBL1127151, “Derivatives of cyclosporin at position 2 as probes for cyclophilin” (1993).

How the values were obtained:
T-cell = experiment: The immunosuppressive activity of compound was measured with the help of a reporter gene assay (IL2_RGA), activity relative to compound 1; assay type: functional, Homo sapiens
Mus musculus = species: Mus musculus; experiment: The immunosuppressive activity of compound was measured with the help of a mixed lymphocyte reaction in mouse (MLR_M), activity relative to compound 1; assay type: functional
[1] = In vitro binding affinity of compound was measured to Cyclophilin under competitive ELISA system, activity relative to compound 1

Question: Which Ratio (T-cell) does the source give for `C/C=C/C[C@@H](C)[C@@H](O)[C@H]1C(=O)N[C@@H](CC(Cl)Cl)C(=O)N(C)CC(=O)N(C)[C@@H](CC(C)C)C(=O)N[C@@H](C(C)C)C(=O)N(C)[C@@H](CC(C)C)C(=O)N[C@@H](C)C(=O)N[C@H](C)C(=O)N(C)[C@@H](CC(C)C)C(=O)N(C)[C@@H](CC(C)C)C(=O)N(C)C(C(C)C)C(=O)N1C` (single isomer, unassigned) here?
Answer: 200

Question: What about the Ratio (Mus musculus) of the same compound?
Answer: 135

Question: And the Ratio [1]?
Answer: 250

Question: Which Ratio (T-cell) does the source give for `C/C=C/C[C@@H](C)[C@@H](O)[C@H]1C(=O)N[C@@H]([C@H](O)CC)C(=O)N(C)CC(=O)N(C)[C@@H](CC(C)C)C(=O)N[C@@H](C(C)C)C(=O)N(C)[C@@H](CC(C)C)C(=O)N[C@@H](C)C(=O)N[C@H](C)C(=O)N(C)[C@@H](CC(C)C)C(=O)N(C)[C@@H](CC(C)C)C(=O)N(C)C(C(C)C)C(=O)N1C` (single isomer, unassigned) here?
Answer: 3

Question: And the Ratio (Mus musculus)?
Answer: 2.3

Question: And the Ratio [1]?
Answer: 5.2

Question: Which Ratio (T-cell) does the source give for `C/C=C/C[C@@H](C)[C@@H](O)[C@H]1C(=O)N[C@@H](CC2CC2)C(=O)N(C)CC(=O)N(C)[C@@H](CC(C)C)C(=O)N[C@@H](C(C)C)C(=O)N(C)[C@@H](CC(C)C)C(=O)N[C@@H](C)C(=O)N[C@H](C)C(=O)N(C)[C@@H](CC(C)C)C(=O)N(C)[C@@H](CC(C)C)C(=O)N(C)C(C(C)C)C(=O)N1C` (single isomer, unassigned) here?
Answer: 225

Question: What about the Ratio (Mus musculus) of the same compound?
Answer: 120

Question: And the Ratio [1]?
Answer: 250

Question: With `C/C=C/C[C@@H](C)[C@@H](O)[C@H]1C(=O)N[C@@H](CCC)C(=O)N(C)CC(=O)N(C)[C@@H](CC(C)C)C(=O)N[C@@H](C(C)C)C(=O)N(C)[C@@H](CC(C)C)C(=O)N[C@@H](C)C(=O)N[C@H](C)C(=O)N(C)[C@@H](CC(C)C)C(=O)N(C)[C@@H](CC(C)C)C(=O)N(C)C(C(C)C)C(=O)N1C` (single isomer, unassigned) [GECLOSPORIN] as the compound, how does the Ratio (T-cell) read?
Answer: 2.6

Question: And the Ratio (Mus musculus)?
Answer: 1.6

Question: And the Ratio [1]?
Answer: 4

Question: With `C/C=C/C[C@@H](C)[C@@H](O)[C@H]1C(=O)N[C@@H](C[C@@H](C)O)C(=O)N(C)CC(=O)N(C)[C@@H](CC(C)C)C(=O)N[C@@H](C(C)C)C(=O)N(C)[C@@H](CC(C)C)C(=O)N[C@@H](C)C(=O)N[C@H](C)C(=O)N(C)[C@@H](CC(C)C)C(=O)N(C)[C@@H](CC(C)C)C(=O)N(C)C(C(C)C)C(=O)N1C` (single isomer, unassigned) as the compound, how does the Ratio [1] read?
Answer: 207

Question: What does the source list for `C/C=C/C[C@@H](C)[C@@H](O)[C@H]1C(=O)N[C@@H]([C@@H](C)O)C(=O)N(C)CC(=O)N(C)[C@@H](CC(C)C)C(=O)N[C@@H](C(C)C)C(=O)N(C)[C@@H](CC(C)C)C(=O)N[C@@H](C)C(=O)N[C@H](C)C(=O)N(C)[C@@H](CC(C)C)C(=O)N(C)[C@@H](CC(C)C)C(=O)N(C)C(C(C)C)C(=O)N1C` (single isomer, unassigned)?
Answer: Ratio (T-cell): 1; Ratio (Mus musculus): 1.7; Ratio [1]: 1.4
